Measurements published in ChEMBL document CHEMBL4270495, “Oleanane-, ursane-, and quinone methide friedelane-type triterpenoid derivatives: Recent advances in cancer treatment” (Eur J Med Chem, 2017).

What was measured:
Type in all cases: functional, cell-based
HepG2 [1] = assay: Cytotoxicity in human HepG2 cells assessed as reduction in cell viability incubated for 24 hrs by MTT assay; settings: HepG2, 24 h
MCF7 [2] = assay: Cytotoxicity in human MCF7 cells assessed as reduction in cell viability
A-375 = assay: Cytotoxicity in human A375 cells assessed as reduction in cell viability incubated for 24 hrs by MTT assay; settings: A-375, 24 h
NCI-H446 = assay: Cytotoxicity in human NCI-H446 cells assessed as reduction in cell viability incubated for 24 hrs by MTT assay; settings: NCI-H446, 24 h
[3] = Cytotoxicity in human SPC-A1 cells assessed as reduction in cell viability incubated for 24 hrs by MTT assay; settings: SPCA1, 24 h
SGC-7901 = assay: Cytotoxicity in human SGC7901 cells assessed as reduction in cell viability incubated for 48 hrs by MTT assay; settings: SGC-7901, 48 h
HepG2 [4] = assay: Cytotoxicity in human HepG2 cells assessed as reduction in cell viability incubated for 48 hrs by MTT assay; settings: HepG2, 48 h
HeLa [5] = assay: Cytotoxicity in human HeLa cells assessed as reduction in cell viability incubated for 48 hrs by MTT assay
SMMC-7721 = assay: Cytotoxicity in human SMMC7721 cells assessed as reduction in cell viability incubated for 48 hrs by MTT assay; settings: SMMC-7721, 48 h
MDA-MB-231 = assay: Cytotoxicity in human MDA-MB-231 cells assessed as reduction in cell viability incubated for 24 hrs by MTT assay; settings: MDA-MB-231, 24 h
MCF7 [6] = assay: Cytotoxicity in human MCF7 cells assessed as reduction in cell viability incubated for 24 hrs by MTT assay; settings: MCF7, 24 h
MDA-MB-468 = assay: Cytotoxicity in human MDA-MB-468 cells assessed as reduction in cell viability incubated for 24 hrs by MTT assay; settings: MDA-MB-468, 24 h
T47D = assay: Cytotoxicity in human T47D cells assessed as reduction in cell viability incubated for 24 hrs by MTT assay
MCF-12A = assay: Cytotoxicity in human MCF12A cells assessed as reduction in cell viability incubated for 24 hrs by MTT assay
HL-60 = assay: Cytotoxicity in human HL60 cells assessed as reduction in cell viability incubated for 24 hrs by MTT assay; settings: HL-60, 24 h
HL60/ADR = assay: Cytotoxicity in human HL60/ADR cells assessed as reduction in cell viability incubated for 24 hrs by MTT assay
A549 = assay: Cytotoxicity in human A549 cells assessed as reduction in cell viability incubated for 24 hrs by MTT assay; settings: A549, 24 h
HeLa [7] = assay: Cytotoxicity in human HeLa cells assessed as reduction in cell viability incubated for 72 hrs by MTT assay
HT-29 = assay: Cytotoxicity in human HT-29 cells assessed as reduction in cell viability incubated for 72 hrs by MTT assay; settings: HT-29, 72 h
MCF7 [8] = assay: Cytotoxicity in human MCF7 cells assessed as reduction in cell viability incubated for 72 hrs by MTT assay; settings: MCF7, 72 h

C[C@H]1[C@H](C)CC[C@]2(C(N)=O)CC[C@]3(C)C(=CC[C@@H]4[C@@]5(C)CC[C@H](OC(=O)c6ccccc6)C(C)(C)[C@@H]5CC[C@]43C)[C@H]12
IC50 (HepG2 [1]): 8 µM
IC50 (MCF7 [2]): 44.6 µM

CC(=O)OC[C@]1(C)[C@@H]2CC[C@]3(C)[C@H](C(=O)C=C4[C@H]5[C@](C(=O)OCC(=O)N/N=C/c6ccc(C)cc6)(CC[C@@H](C)[C@@]5(C)O)CC[C@]43C)[C@@]2(C)CC[C@@H]1OC(C)=O
IC50 (A-375): 6.5 µM
IC50 (NCI-H446): 15 µM
IC50 [3]: 7.4 µM

C[C@@H]1CC[C@]2(C(=O)OCC(=O)N/N=C/c3ccc(Cl)cc3)CC[C@]3(C)C(=CC(=O)[C@@H]4[C@@]5(C)CC[C@H](O)[C@](C)(CO)[C@@H]5CC[C@]43C)[C@@H]2[C@]1(C)O
IC50 (SGC-7901): > 100 µM
IC50 (HepG2 [4]): > 100 µM
IC50 (HeLa [5]): > 100 µM

CC(=O)OC[C@]1(C)[C@@H]2CC[C@]3(C)[C@H](C(=O)C=C4[C@H]5[C@](C(=O)OCC(=O)N/N=C/c6ccc(Cl)cc6)(CC[C@@H](C)[C@@]5(C)O)CC[C@]43C)[C@@]2(C)CC[C@@H]1OC(C)=O
IC50 (A-375): > 100 µM
IC50 (NCI-H446): > 100 µM
IC50 [3]: > 100 µM

COc1ccc(/C=N/NC(=O)COC(=O)[C@]23CC[C@@H](C)[C@@](C)(O)[C@H]2C2=CC(=O)[C@@H]4[C@@]5(C)CC[C@H](O)[C@](C)(CO)[C@@H]5CC[C@@]4(C)[C@]2(C)CC3)cc1
IC50 (SGC-7901): 11.3 µM
IC50 (HepG2 [4]): 4.16 µM
IC50 (HeLa [5]): 8.54 µM

CC1=C(O)C(=O)C=C2C1=CC=C1[C@@]2(C)CC[C@@]2(C)[C@@H]3C[C@](C)(C(=O)NCCO)CC[C@]3(C)CC[C@]12C
IC50 (SGC-7901): 0.16 µM
IC50 (SMMC-7721): 300 nM

CC1(C)CC[C@@]23CC[C@]4(C)[C@@](OC2=O)([C@@H]3C1)[C@@H](Br)C[C@@H]1[C@@]2(C)CC/C(=N\O)C(C)(C)[C@@H]2CC[C@]14C
IC50 (MDA-MB-231): > 50 µM
IC50 (MCF7 [6]): 6.58 µM
IC50 (MDA-MB-468): 5.81 µM
IC50 (T47D): 5.7 µM
IC50 (MCF-12A): 20.4 µM
IC50 (HL-60): 10.2 µM
IC50 (HL60/ADR): 12.1 µM

C[C@@H]1CC[C@]2(C(=O)OCC(=O)N/N=C/c3ccc([N+](=O)[O-])cc3)CC[C@]3(C)C(=CC(=O)[C@@H]4[C@@]5(C)CC[C@H](O)[C@](C)(CO)[C@@H]5CC[C@]43C)[C@@H]2[C@]1(C)O
IC50 (SGC-7901): 15.4 µM
IC50 (HepG2 [4]): 8.74 µM
IC50 (HeLa [5]): 18.8 µM

CC1(C)CC[C@]2(C(=O)O)CC[C@]3(C)C(=CC[C@@H]4[C@@]5(C)CC[C@H](O[C@@H]6OC[C@H](O[C@@H]7OC[C@H](O)[C@H](O)[C@H]7O)[C@H](O[C@H]7O[C@H](CO)[C@@H](O)[C@H](O)[C@@H]7O)[C@H]6O)[C@@](C)(CO)[C@@H]5CC[C@]43C)[C@H]2C1
IC50 (MCF7 [6]): > 50 µM
IC50 (A549): 17.9 µM

C[C@@H]1O[C@@H](O[C@H]2CC[C@@]3(C)[C@@H](CC[C@]4(C)[C@@H]3CC=C3[C@H]5CC(C)(C)CC[C@]5(C(=O)O)CC[C@]34C)[C@]2(C)CO)[C@H](O)[C@H](O)[C@H]1O[C@@H]1OC[C@H](O)[C@H](O)[C@H]1O
IC50 (MCF7 [6]): 42.1 µM
IC50 (A549): 17.3 µM

CCCC(=O)OC[C@]1(C)C=C(C=O)[C@@]2(C)[C@H]1CC[C@]1(C)[C@@H]2C(=O)C=C2[C@@H]3[C@@H](C)[C@H](C)CC[C@]3(C(=O)OC)CC[C@]21C
IC50 (HeLa [7]): 490 nM
IC50 (HT-29): 770 nM
IC50 (MCF7 [8]): 880 nM

C[C@@H]1O[C@@H](O[C@@H]2[C@@H](O)[C@H](O[C@H]3CC[C@@]4(C)[C@@H](CC[C@]5(C)[C@@H]4CC=C4[C@H]6CC(C)(C)CC[C@]6(C(=O)O)CC[C@]45C)[C@]3(C)CO)OC[C@@H]2O[C@H]2O[C@H](CO)[C@@H](O)[C@H](O)[C@@H]2O)[C@H](O)[C@@H](O)[C@H]1O
IC50 (MCF7 [6]): > 50 µM
IC50 (A549): 19.6 µM
